These results are taken from ChEMBL document CHEMBL4431306, “Gamma Secretase Modulators: New Alzheimer's Drugs on the Horizon?” (J Med Chem, 2016).

Experiment [1] deals with Gamma-secretase. In words: Modulation of gamma-secretase in human SH-SY5Y cells expressing human APP751 assessed as reduction in amyloid beta 42 production after 16 to 18 hrs by ELISA. The class given is cell-based. For orientation: ELISA stands for enzyme-linked immunosorbent assay.
For experiment [2], the target named is Gamma-secretase. Description: Modulation of gamma-secretase in human SH-SY5Y cells expressing human APP751 assessed as reduction in amyloid beta 42 production after 24 hrs by sandwich ELISA. The class given is cell-based.
The target of experiment [3] is Gamma-secretase. Description: Modulation of gamma-secretase in human H4 cells expressing human APP751 assessed as reduction in amyloid beta 42 production after 16 to 18 hrs by sandwich ELISA. The class given is cell-based.
Experiment [4] addresses Gamma-secretase. In words: Modulation of gamma-secretase (unknown origin) assessed as reduction in amyloid beta 42 production by ELISA. The class given is protein-complex assay, Homo sapiens.
The test system of experiment [5] is Mus musculus. In words: Increase in amyloid beta 38 levels in mouse brain at 30 mg/kg, po administered as single dose measured 4 hrs post dose by ELISA. The class given is functional.
Experiment [6] deals with Mus musculus. In words: Reduction in amyloid beta 42 levels in mouse brain at 30 mg/kg, po administered as single dose measured 4 hrs post dose by ELISA. The class given is functional.
Experiment [7] concerns the target Gamma-secretase. In words: Modulation of gamma-secretase in human SK-N-BE(2) cells expressing human APP695 assessed as reduction in amyloid beta 42 production incubated overnight by sandwich immunoassay. The class given is cell-based.
Experiment [8] addresses Gamma-secretase. Description: Modulation of gamma-secretase in human H4 cells expressing human APP695 assessed as reduction in amyloid beta 42 production after 22 hrs by electrochemiluminescence assay. The class given is cell-based.
For experiment [9], the species on record is Homo sapiens. In words: Modulation of gamma-secretase in human H4 cells expressing human APP695 assessed as inhibition of amyloid beta 42 production at 10 uM after 16 hrs by sandwich ELISA. The class given is functional.
For experiment [10], the system named is Mus musculus. In words: Reduction in amyloid beta 42 levels in mouse brain at 30 mg/kg, po administered as single dose measured 4 hrs post dose by electrochemiluminescence assay. The class given is functional.
Experiment [11] addresses Gamma-secretase. In words: Modulation of gamma-secretase in human SH-SY5Y cells expressing human APP751 assessed as reduction in amyloid beta 42 production after 18 to 22 hrs by sandwich ELISA. The class given is cell-based.
For experiment [12], the system named is Mus musculus. In words: Reduction in amyloid beta 42 levels in Tg 2576 mouse brain at 50 to 100 mg/kg administered via oral gavage for 3 days by LC-MS/MS analysis. The class given is functional.
In experiment [13] the target is Gamma-secretase. In words: Modulation of gamma-secretase in human H4 cells expressing APP Swedish mutant assessed as inhibition of amyloid beta (1 to 42 residues) production. The class given is cell-based.
Experiment [14] has as its system Homo sapiens. In words: Reduction in amyloid beta (1 to 42 residues) […] in human plasma at 250 mg, po administered as single dose measured up to 24 hrs relative to control. The class given is functional.
In experiment [15] the test system is Homo sapiens. Description: Reduction in amyloid beta 42 levels in human plasma at 250 mg, po administered as single dose measured over 24 hrs post dose by sandwich enzyme immunoassay. The class given is functional.
Experiment [16] has as its target Gamma-secretase. In words: Modulation of gamma-secretase in human H4 cells expressing human APP695 assessed as inhibition of amyloid beta 42 production after 16 hrs by sandwich ELISA. The class given is cell-based.
Experiment [17] relates to Mus musculus. Description: Reduction in amyloid beta (1 to 42 residues) AUC in triple transgenic mouse brain at 100 mg/kg administered via oral gavage measured up to 24 hrs by UPLC-MS-MS analysis. The class given is functional.
A further experiment concerns Rattus norvegicus. Description: Reduction in amyloid beta (1 to 42 residues) AUC in Sprague-Dawley rat brain at 10 mg/kg administered via oral gavage measured up to 24 hrs by UPLC-MS-MS analysis. The class given is functional.
The test system of experiment [18] is Mus musculus. Description: Reduction in amyloid beta (1 to 42 residues) AUC in triple transgenic mouse brain at 30 mg/kg administered via oral gavage measured up to 24 hrs by UPLC-MS-MS analysis. The class given is functional.
The test system of experiment [19] is Mus musculus. Description: Reduction in amyloid beta 42 levels in mouse brain at 10 mg/kg, po administered as single dose measured 4 hrs post dose by electrochemiluminescence assay. The class given is functional.

For orientation: EC50 means the midpoint of the concentration-response curve. By inhibition in vivo is commonly meant the percentage by which the read-out fell short of the control. Read a low inhibition in vivo as a response near the control. A word on the inhibition: it is the drop in the measured response relative to a control, in per cent.

Each structure is given as a SMILES string.

As for `COc1cc(-c2csc(N3CCCn4nc5c(c43)CCCC5)n2)ccc1-n1cnc(C)c1`, the EC50 on Gamma-secretase [1] was determined as 0.006 µM.

Take `CCn1nc2c(c1Nc1nc(-c3ccc(-n4cnc(C)c4)nc3)cs1)CCCC2`: the EC50 on Gamma-secretase [2] was 1.3 µM. On the same count and under the same terms, to `CCn1nc2c(c1Nc1nc(-c3ccc(-n4cnc(C)c4)c(OC)n3)cs1)CCCC2` belongs 0.03 µM.

For `COc1cc(Nc2ncc3c(n2)N(C)[C@@H](c2ccccc2)CO3)ccc1-n1cnc(C)c1`, at Gamma-secretase [3], the 50% effective concentration (EC50) is 0.016 µM. As to `CCn1nc2c(c1Nc1nc(-c3ccc(-n4cnc(C)c4)cc3)cs1)CCCC2`, the EC50 at Gamma-secretase [2] was found to be 0.347 µM.

For `CC(=O)O[C@@H]([C@H]1C[C@@H](C)C2=C(O1)[C@H](O)[C@@]1(C)[C@@H]3CC[C@H]4C(C)(C)[C@@H](O[C@@H]5OC[C@@H](O)[C@H](O)[C@H]5O)CC[C@@]45C[C@@]35CC[C@]21C)C(C)(C)O`, on Gamma-secretase [4], the half-maximal effective concentration (EC50) was determined as 0.1 µM. In the experiment with Mus musculus [5], `COc1cc2[nH]c(-c3cn4c(n3)C(c3ccccc3C(F)(F)F)OCC4)cc2cc1C#N` (configuration not stated) registered an Activity of 41%. The molecule further came in with an inhibition in vivo at 30 mg/kg in the experiment with Mus musculus [6] of 57%. Further, the concentration giving a half-maximal response (EC50) at Gamma-secretase [7] is 0.045 µM. As for `COc1cc(Nc2ncc3c(n2)N(C)C2(CCCC2)C(=O)N3CC(F)(F)F)ccc1-n1cnc(C)c1`, the EC50 on Gamma-secretase [8] amounted to 0.022 µM. On to `C[C@H](CCC(=O)O)[C@H]1CC[C@H]2[C@@H]3CC[C@@H]4C[C@H](O)CC[C@]4(C)[C@H]3CC[C@]12C` [LITHOCHOLIC ACID], for which the inhibition at 10 µM in the experiment listed under Homo sapiens [9] was found to be 62%. For `COc1cc(Nc2ncc3c(n2)N2CCCC2CO3)ccc1-n1cnc(C)c1` (configuration not stated), at Gamma-secretase [3], the EC50 was determined as 0.071 µM. In turn, `CCn1cc(C(C)N2C(=O)c3ccc(-n4cnc(C)c4)c(=O)n3C[C@H]2C)c2cc(Cl)c(F)cc21` (some centres not stated) came in with an inhibition in vivo at 30 mg/kg in the experiment with Mus musculus [10] of 61%. Besides, at Gamma-secretase [7], the 50% effective concentration (EC50) came out at 0.01 µM. For the molecule `COc1cc(N2CCC(Nc3ncc4c(n3)N(c3ccccc3)CCO4)CC2)ccn1`, the half-maximal effective concentration (EC50) at Gamma-secretase [3] was found to be 0.025 µM.

As for `COc1cc(Nc2nc3c(c(N4CCCCC4)n2)SC2(CCC2)C3)ccc1-n1cnc(C)c1`, the EC50 on Gamma-secretase [8] is 0.09 µM.

For `CCN(CC)c1ccc(Nc2nc(-c3ccc(-n4ccnc4)cc3)cs2)c(C)c1`, the EC50 at Gamma-secretase [11] worked out at 1.5 µM. As for `CCc1cc(Nc2nc(-c3ccc(-n4cnc(C)c4)c(F)c3)cs2)c(C)cc1C`, the “inhibition (INH)” value in the experiment on Mus musculus [12] is on record as 30 - 40%. Regarding `CNc1nc(Cc2ccccc2)nc(Nc2ccc(-n3cnc(C)c3)c(OC)c2)n1`, the EC50 at Gamma-secretase [13] was found to be 0.029 µM. `COc1nc(/C=C/c2nc3n(n2)CCC[C@H]3c2ccccc2C(F)(F)F)ccc1-n1cnc(C)c1` [E-2212]: the figures for the “inhibition (INH)” value in the experiment on Homo sapiens [14] and in the experiment on Homo sapiens [15] were 44% and 54%, respectively. As for `C[C@H](CCC(=O)O)[C@H]1CC[C@H]2[C@@H]3CC[C@@H]4CCCC[C@]4(C)[C@H]3CC[C@]12C` [URSOCHOLANIC ACID], the half-maximal effective concentration (EC50) on Gamma-secretase [16] turned out to be 5.7 µM. In the case of `COc1cc(Nc2ncc3c(n2)N(c2cc(F)cc(F)c2)CCO3)ccc1-n1cnc(C)c1`, the EC50 on Gamma-secretase [3] turned out to be 0.014 µM. For the molecule `Cc1cc([C@@H]2CC[C@@H](Nc3ncc4c(n3)N(c3ccccc3Cl)CCO4)CO2)ccn1`, on Gamma-secretase [3], the 50% effective concentration (EC50) was determined as 0.041 µM. Same read-out and setting: to `COc1cc(Nc2ncc3c(n2)N(CC(F)(F)F)CCO3)ccc1-n1cnc(C)c1` belongs 0.101 µM. On to `CCN1C(=O)C2CCCCCN2c2nc(Nc3ccc(-n4cnc(C)c4)c(OC)c3)ncc21` (configuration not stated), for which the half-maximal effective concentration (EC50) on Gamma-secretase [8] stood at 0.046 µM. For the molecule `COc1cc(Nc2ncc3c(n2)N(c2ccccc2)CCO3)ccc1-n1cnc(C)c1`, the EC50 at Gamma-secretase [3] is 0.039 µM. As for `Cc1cn(-c2ccc3n(c2=O)CC2CCC(Cc4cc(C(F)(F)F)cc(C(F)(F)F)c4)N2C3=O)cn1` (configuration not stated), the EC50 on Gamma-secretase [7] came out at 0.05 µM. On to `COc1cc(Nc2ncc3c(n2)N(C)C2(CC2)CO3)ccc1-n1cnc(C)c1`, for which the EC50 on Gamma-secretase [3] was 0.049 µM. Take `COc1cc2[nH]c(-c3cn4c(n3)C(c3cccc(F)c3C)OCC4)cc2cc1C#N` (configuration not stated): the Activity in the experiment with Mus musculus [5] turned out to be 40%. The inhibition in vivo at 30 mg/kg with Mus musculus [6] was determined as 66%. For the same molecule, the EC50 at Gamma-secretase [7] stood at 0.02 µM.

With `COc1cc(Nc2nc3n(n2)CCCC[C@H]3c2ccc(F)cc2)ccc1-n1cnc(C)c1`, on Gamma-secretase [13], the EC50 was 0.006 µM. This molecule displayed an inhibition in vivo at 100 mg/kg with Mus musculus [17] of 55%. This molecule also showed an inhibition in vivo at 10 mg/kg in the experiment on Rattus norvegicus of 47%. The inhibition in vivo at 30 mg/kg with Mus musculus [18] is 31%. `Cc1cn(-c2ccc3n(c2=O)C[C@@H](C)N(C(C)c2coc4cc(F)c(C(F)(F)F)cc24)C3=O)cn1` (some centres not stated) showed an inhibition in vivo at 10 mg/kg with Mus musculus [19] of 42%. Also, on Gamma-secretase [7], the concentration for a half-maximal effect (EC50) turned out to be 0.006 µM. `COc1cc(N2CCC(Nc3ncc4c(n3)N(CC(F)(F)F)CCO4)CC2)ccn1`: the concentration for a half-maximal effect (EC50) at Gamma-secretase [3] amounted to 0.105 µM.

For `COc1cc2[nH]c(-c3cn4c(n3)C(c3ccccc3Cl)OCC4)cc2cc1C#N` (configuration not stated), the Activity in the experiment on Mus musculus [5] was found to be 10%. The molecule also had an inhibition in vivo at 30 mg/kg in the experiment on Mus musculus [6] of 73%. The half-maximal effective concentration (EC50) on Gamma-secretase [7] was 0.021 µM.
